Values of other authors in patent publication USRE41148E1, “Oral pulsed dose drug delivery system” (Shire Laboratories, Inc., priority 1998, dated 2010).

Columns and labels:
[1] = wax-surfactant coating level 60%
[2] = pulsatile capsule, release after nominal 5-hr period, majority of subjects

lag time of drug release [1] | time required for complete release after the lag time [1] | drug observed in the blood [2] | Structure (SMILES)
two-hour | three hours | – | Cn1c(=O)c2[nH]cnc2n(C)c1=O [theophylline]
– | – | no measurable amounts | C[C@H](CS)C(=O)N1CCC[C@H]1C(=O)O [captopril]
